Data on 13 compounds can be found in US7262296B2 (priority 2002, dated 2007).

The subject of data set [1] is tip of the tongue of the volunteers. To be noted: human, in vivo.
Data set [2] concerns hepatic drug metabolizing enzymes. To be noted: rat, in vivo; cited from earlier work.
Data set [3] concerns tongue. Conditions: in vivo; cited from earlier work.

Take `CC(C)Oc1ccc(/C=C/C(=O)N2CCOCC2)cc1` [vi, 3-(4-isopropyloxyphenyl)-2E-propenoic acid morpholine amide]: in data set [1], the Pungency index is recorded as 10^6.

`CC1(C)CCc2cc(/C=C/C=C/C(=O)N3CCOCC3)ccc2O1` [iii, 5-(2H)-2,2-dimethyl-3,4-dihydro-benzopyran-6yl-2E, 4E-pentadienoic acid morpholine amide]: in data set [1], the Pungency index is 10^4.

With `O=C(/C=C/C=C/c1ccc2c(c1)OCCO2)N1CCOCC1` [iv, 5-(3,4-ethylenedioxyphenyl)-2E, 4E-pentadienoic acid morpholine amide], the Pungency index in data set [1] is on record as 10^4.

Consider `O=C(/C=C/C=C/c1ccc2c(c1)OCO2)N1CCCCC1` [piperine], for which the “effect on hepatic drug metabolizing enzymes” value in data set [2] is listed as “inhibiting their activity”.

In the case of `O=C(/C=C/c1ccc2c(c1)OCCO2)N1CCOCC1` [x, 3-(3,4-ethylenedioxyphenyl)-2E-propenoic acid morpholine amide], in data set [1], the Pungency index was 10^4.

On to `COc1ccc(/C=C/C=C/C(=O)N2CCOCC2)cc1` [i, 5-(4-methoxyphenyl)-2E, 4E-pentadienoic acid morpholine amide], for which the Pungency index in data set [1] was 10^6.

Regarding `O=C(/C=C/C=C/c1ccc2c(c1)OCO2)N1CCCCC1` [A, reference compound], in data set [1], the Pungency index is on record as 10^4.

For `COc1cc(CNC(=O)CCCC/C=C/C(C)C)ccc1O` [capsaicin], the “heat units (pungency)” value in data set [3] is reported as 10^7 units.

For “3-[(2H)-2,2-dimethyl-3,4-dihydro-benzopyran-6yl]-2E-propenoic acid morpholine amide [ix]”, the Pungency index in data set [1] is on record as 10^6.

As for `CCCCOc1ccc(/C=C/C(=O)N2CCOCC2)cc1` [vii, 3-(4-butyloxyphenyl)-2E-propenoic acid morpholine amide], the Pungency index in data set [1] was 10^7.

In the case of `CC(C)Oc1ccc(/C=C/C=C/C(=O)N2CCOCC2)cc1` [ii, 5-(4-isopropyloxyphenyl)-2E, 4E-pentadienoic acid morpholine amide], the Pungency index in data set [1] was 10^7.

Regarding `COc1ccc(/C=C/C(=O)N2CCOCC2)cc1` [v, 3-(4-methoxyphenyl)-2E-propenoic acid morpholine amide], the Pungency index in data set [1] is recorded as 10^5.

“3-(4-allyloxy phenyl)-2E-propenoic acid morpholine amide [viii]”: the Pungency index in data set [1] is 10^4.
